Where a name gives a salt, the structure may show the parent alone. Read-outs that look alike come from different tables or passages of the source.
How the values were obtained:
[1] = molecular target: PI3Kδ (p110δ/p85α) Recombinant Human Protein (Homo sapiens (Human), UniProt O00329); experiment: PI3Kδ Scintillation Proximity Assay; assay type: biochemical; settings: read-out: PI3K-delta SPA IC50
In short: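 IC50 was fitted to percent solvent-control activity from SPA scintillation counts after WGA bead capture of 33P-labelled lipid product. Reaction: 120 min, room temperature, 3.4 nM p110δ/p85α, 20 μM PIP2, 2 μM ATP with tracer, MOPS pH 6.7 buffer containing MgCl2, DTT, CHAPS, 2% DMSO.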

[2] = system: Phosphorylated Ribosomal Protein S6 (RPS6) in THP-1 cells; experiment: THP-1 RPS6 ELISA Assay; assay type: cell-based, Human; settings: MCP-1 stimulated, phospho-RPS6 ELISA, read-out: THP p-RPS6 ELISA IC50
In short: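 Phospho-RPS6 in lysates measured by ELISA at 450 nm, corrected at 540 nm, after MCP-1 challenge (10 nM, 15 min) of THP-1 cells that were starved overnight and exposed to test compound for 2 h at 37° C, 2×10^5 cells/well. Curve fit of percent inhibition gives IC50.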

[3] = molecular target: PI3Kγ (p110γ) Recombinant Human Protein (Homo sapiens (Human), UniProt P48736); experiment: PI3K-γ Scintillation Proximity Assay; assay type: biochemical; settings: read-out: PI3K-gamma SPA IC50
In short: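 Radiometric SPA: reaction at room temperature for 120 min using 2 μM ATP with [γ-33P]ATP tracer, 20 μM PIP2 substrate and 13 nM human PI3Kγ (MOPS pH 6.7, MgCl2, DTT, CHAPS; 2% DMSO). EDTA quench with WGA beads, scintillation count, and IC50 fit of percent-of-control activity.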

PI3Kγ (p110γ) Recombinant Human Protein, sequence (P48736 whole entry): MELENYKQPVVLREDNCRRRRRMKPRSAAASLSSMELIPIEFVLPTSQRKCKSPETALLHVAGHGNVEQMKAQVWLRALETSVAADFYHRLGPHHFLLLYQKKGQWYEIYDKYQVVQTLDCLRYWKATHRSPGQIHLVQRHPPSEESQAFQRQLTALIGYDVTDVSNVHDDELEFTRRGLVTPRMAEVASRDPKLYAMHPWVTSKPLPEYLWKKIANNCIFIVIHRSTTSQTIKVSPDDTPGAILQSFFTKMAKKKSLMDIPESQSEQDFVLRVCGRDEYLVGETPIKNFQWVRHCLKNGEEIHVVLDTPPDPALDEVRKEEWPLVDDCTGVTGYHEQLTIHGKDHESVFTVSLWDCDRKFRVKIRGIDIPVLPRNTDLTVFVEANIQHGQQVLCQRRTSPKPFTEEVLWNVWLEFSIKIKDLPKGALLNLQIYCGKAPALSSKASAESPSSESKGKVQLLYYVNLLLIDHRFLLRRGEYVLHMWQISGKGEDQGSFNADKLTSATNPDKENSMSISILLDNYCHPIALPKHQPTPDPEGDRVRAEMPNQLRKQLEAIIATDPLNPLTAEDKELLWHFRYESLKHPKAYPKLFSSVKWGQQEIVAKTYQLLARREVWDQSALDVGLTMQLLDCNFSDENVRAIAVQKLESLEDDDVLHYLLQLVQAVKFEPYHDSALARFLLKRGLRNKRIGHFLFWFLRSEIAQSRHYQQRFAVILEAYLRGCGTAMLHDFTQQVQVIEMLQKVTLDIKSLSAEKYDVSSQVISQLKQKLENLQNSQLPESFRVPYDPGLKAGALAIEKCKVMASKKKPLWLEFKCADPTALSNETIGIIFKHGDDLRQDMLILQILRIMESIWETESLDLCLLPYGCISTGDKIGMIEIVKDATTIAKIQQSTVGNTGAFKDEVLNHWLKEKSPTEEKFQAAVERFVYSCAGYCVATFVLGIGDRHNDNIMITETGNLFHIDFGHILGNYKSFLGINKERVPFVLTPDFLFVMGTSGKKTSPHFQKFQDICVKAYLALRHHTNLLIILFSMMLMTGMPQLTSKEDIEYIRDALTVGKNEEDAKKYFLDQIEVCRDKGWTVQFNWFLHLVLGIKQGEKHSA
PI3Kδ (p110δ/p85α) Recombinant Human Protein, sequence (O00329 whole entry): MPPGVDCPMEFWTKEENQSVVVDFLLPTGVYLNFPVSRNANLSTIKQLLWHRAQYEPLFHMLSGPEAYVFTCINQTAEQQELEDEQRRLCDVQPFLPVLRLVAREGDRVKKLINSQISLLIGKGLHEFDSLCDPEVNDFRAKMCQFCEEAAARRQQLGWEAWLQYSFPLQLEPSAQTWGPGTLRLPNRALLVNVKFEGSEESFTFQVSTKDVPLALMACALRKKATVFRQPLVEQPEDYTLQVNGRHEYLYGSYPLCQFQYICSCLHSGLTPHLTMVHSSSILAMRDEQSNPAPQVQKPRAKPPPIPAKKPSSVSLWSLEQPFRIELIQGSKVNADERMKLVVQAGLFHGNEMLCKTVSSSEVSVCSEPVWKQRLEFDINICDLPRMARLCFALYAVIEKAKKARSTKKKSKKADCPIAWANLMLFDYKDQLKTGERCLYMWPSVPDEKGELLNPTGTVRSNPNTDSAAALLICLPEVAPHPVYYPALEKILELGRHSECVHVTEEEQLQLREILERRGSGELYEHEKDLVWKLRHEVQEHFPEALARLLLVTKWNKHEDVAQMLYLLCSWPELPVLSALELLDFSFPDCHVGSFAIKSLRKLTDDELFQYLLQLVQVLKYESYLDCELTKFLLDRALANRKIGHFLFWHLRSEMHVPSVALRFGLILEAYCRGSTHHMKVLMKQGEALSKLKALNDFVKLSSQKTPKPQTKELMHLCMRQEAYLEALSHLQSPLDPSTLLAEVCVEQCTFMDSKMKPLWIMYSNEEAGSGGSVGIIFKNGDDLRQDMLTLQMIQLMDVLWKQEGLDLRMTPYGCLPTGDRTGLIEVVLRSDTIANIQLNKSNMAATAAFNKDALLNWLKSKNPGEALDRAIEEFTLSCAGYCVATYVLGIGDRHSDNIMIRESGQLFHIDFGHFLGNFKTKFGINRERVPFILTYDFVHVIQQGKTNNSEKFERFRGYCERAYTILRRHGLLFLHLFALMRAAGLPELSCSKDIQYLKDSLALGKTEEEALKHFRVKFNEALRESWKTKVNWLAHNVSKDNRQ
PI3Kδ (p110δ/p85α) Recombinant Human Protein, sequence (P27986 whole entry partner): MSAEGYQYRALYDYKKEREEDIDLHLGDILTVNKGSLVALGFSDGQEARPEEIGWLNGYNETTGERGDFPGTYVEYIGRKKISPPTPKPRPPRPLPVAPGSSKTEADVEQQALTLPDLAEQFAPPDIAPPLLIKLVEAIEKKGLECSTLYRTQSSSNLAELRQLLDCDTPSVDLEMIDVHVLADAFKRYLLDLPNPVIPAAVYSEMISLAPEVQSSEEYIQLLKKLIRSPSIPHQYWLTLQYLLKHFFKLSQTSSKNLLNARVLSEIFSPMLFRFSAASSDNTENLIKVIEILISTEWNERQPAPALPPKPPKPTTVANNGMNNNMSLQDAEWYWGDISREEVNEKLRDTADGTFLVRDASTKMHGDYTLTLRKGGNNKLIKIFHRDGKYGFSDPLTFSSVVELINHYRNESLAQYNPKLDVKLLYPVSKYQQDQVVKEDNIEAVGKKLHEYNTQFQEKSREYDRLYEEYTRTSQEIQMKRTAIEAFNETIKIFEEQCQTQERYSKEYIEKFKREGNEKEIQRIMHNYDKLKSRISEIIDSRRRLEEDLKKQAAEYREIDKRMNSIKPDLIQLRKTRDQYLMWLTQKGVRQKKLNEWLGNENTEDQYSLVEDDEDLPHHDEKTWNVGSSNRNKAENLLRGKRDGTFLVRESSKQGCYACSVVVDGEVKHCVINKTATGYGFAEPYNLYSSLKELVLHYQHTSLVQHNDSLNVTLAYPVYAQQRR

Structure (SMILES)	IC50 [1] [nM]	IC50 ([2]; Homo sapiens) [nM]	IC50 [3] [nM]	IC50 [2] [nM]
Cc1nc(-c2cc(-c3cncc(C(=O)N4CCC(F)(F)C4)c3)ccn2)[nH]c1C [Example 173, 5-[(3,3-Difluoropyrrolidin-1-yl)carbonyl]-2′-(4,5-dimethyl-1H-imidazol-2-yl)-3,4′-bipyridine trifluoroacetate salt]	≤ 50	≤ 300	≤ 50	–
COc1cncc(-c2ccnc(-c3cnc(NCC4CCC4)[nH]3)c2)c1 [Example 65, N-(Cyclobutylmethyl)-5-(5-methoxy-3,4′-bipyridin-2′-yl)-1H-imidazol-2-amine trifluoroacetate salt]	> 500	> 5000	≤ 500	–
Cc1[nH]c(-c2cc(-c3cncc(S(C)(=O)=O)c3)ccn2)nc1C(=O)N[C@@H]1CCOC1 [Example 256, 5-Methyl-2-[5-(methylsulfonyl)-3,4′-bipyridin-2′-yl]-N-[(3R)-tetrahydrofuran-3-yl]-1H-imidazole-4-carboxamide trifluoroacetate salt]	≤ 50	1000 to 5000	≤ 50	–
Cc1nc(-c2cc(-c3cncc(C(=O)N4CC(C)(C)C4)c3)ccn2)[nH]c1C [Example 185, 5-[(3,3-Dimethylazetidin-1-yl)carbonyl]-2′-(4,5-dimethyl-1H-imidazol-2-yl)-3,4′-bipyridine trifluoroacetate salt]	≤ 100	≤ 300	≤ 50	–
Cc1nc(-c2cc(-c3cncc(C(=O)N4CCC(C(F)(F)F)C4)c3)ccn2)[nH]c1C (racemic) [Example 178, 2′-(4,5-Dimethyl-1H-imidazol-2-yl)-5-{[3-(trifluoromethyl)pyrrolidin-1-yl]carbonyl}-3,4′-bipyridine trifluoroacetate salt]	≤ 50	≤ 300	≤ 50	–
Cc1nc(-c2cc(-c3cncc(N4CCOCC4)c3)ccn2)[nH]c1C [Example 98, 4-(2′-(4,5-Dimethyl-1H-imidazol-2-yl)-3,4′-bipyridin-5-yl)morpholine trifluoroacetate salt]	≤ 100	≤ 300	≤ 100	–
Cc1nc(-c2cc(-c3cncc(C(=O)N4CCC(C#N)C4)c3)ccn2)[nH]c1C (racemic) [Example 183, 1-{[2′-(4,5-Dimethyl-1H-imidazol-2-yl)-3,4′-bipyridin-5-yl]carbonyl}pyrrolidine-3-carbonitrile trifluoroacetate salt]	≤ 50	300 to 1000	≤ 50	–
Cc1cnc(-c2cc(-c3cncc(N4CCOCC4)c3)ccn2)[nH]1 [Example 97, 2′-(5-Methyl-1H-imidazol-2-yl)-5-morpholin-4-yl-3,4′-bipyridine]	≤ 500	300 to 1000	≤ 50	–
CCc1cnc(-c2cc(-c3cncc(S(C)(=O)=O)c3)ccn2)[nH]1 [Example 110, 2′-(5-Ethyl-1H-imidazol-2-yl)-5-(methylsulfonyl)-3,4′-bipyridine trifluoroacetate salt]	≤ 50	300 to 1000	≤ 50	–
Cc1nc(-c2cc(-c3cncc(C4CCN(S(C)(=O)=O)C4)c3)ccn2)[nH]c1C (racemic) [Example 240, 2′-(4,5-Dimethyl-1H-imidazol-2-yl)-5-[1-(methylsulfonyl)pyrrolidin-3-yl]-3,4′-bipyridine]	≤ 500	1000 to 5000	≤ 100	–
Cc1[nH]c(-c2cc(-c3cnn(Cc4ccc(Cl)cc4)c3)ccn2)nc1C#N [Example 297, 2-{4-[1-(4-Chlorobenzyl)-1H-pyrazol-4-yl]pyridin-2-yl}-5-methyl-1H-imidazole-4-carbonitrile Trifluoroacetate Salt]	> 500	> 5000	≤ 50	–
Cc1nc(-c2cc(-c3cncc(C(=O)N4CCCCC4C)c3)ccn2)[nH]c1C (racemic) [Example 190, 2′-(4,5-Dimethyl-1H-imidazol-2-yl)-5-[(2-methylpiperidin-1-yl)carbonyl]-3,4′-bipyridine trifluoroacetate salt]	≤ 100	300 to 1000	≤ 50	–
COc1cncc(-c2ccnc(-c3ncc(C(F)(F)F)[nH]3)c2)c1 [Example 79, 5-Methoxy-2′-(5-(trifluoromethyl)-1H-imidazol-2-yl)-3,4′-bipyridine trifluoroacetate salt]	≤ 500	> 5000	≤ 50	–
CCn1cc(-c2ccnc(-c3ncc(-c4ccccc4)[nH]3)c2)cn1 [Example 10, 4-(1-Ethyl-1H-pyrazol-4-yl)-2-(5-phenyl-1H-imidazol-2-yl)pyridine trifluoroacetate salt]	≤ 500	1000 to 5000	≤ 500	–
COc1cncc(-c2ccnc(-c3ncc(C)[nH]3)c2)c1 [Example 77, 5-Methoxy-2′-(5-methyl-1H-imidazol-2-yl)-3,4′-bipyridine]	≤ 500	300 to 1000	≤ 50	–
COC(=O)c1nc(-c2cc(-c3cncc(N4CCOCC4)c3)ccn2)[nH]c1C [Example 125, Methyl 5-methyl-2-(5-morpholin-4-yl-3,4′-bipyridin-2′-yl)-1H-imidazole-4-carboxylate]	≤ 50	300 to 1000	≤ 100	–
Cc1[nH]c(-c2cc(-c3cncc(N4CCOCC4)c3)ccn2)nc1C(=O)NC(C)C [Example 268, N-Isopropyl-5-methyl-2-(5-morpholin-4-yl-3,4′-bipyridin-2′-yl)-1H-imidazole-4-carboxamide trifluoroacetate salt]	≤ 50	300 to 1000	≤ 50	–
Cc1[nH]c(-c2cc(-c3cncc(N4CCOCC4)c3)ccn2)nc1C(=O)N1CC(C)(C)C1 [Example 267, 2′-{4-[(3,3-Dimethylazetidin-1-yl)carbonyl]-5-methyl-1H-imidazol-2-yl}-5-morpholin-4-yl-3,4′-bipyridine]	≤ 50	1000 to 5000	≤ 50	–
CS(=O)(=O)c1cncc(-c2ccnc(-c3ncc(Cc4ccccc4)[nH]3)c2)c1 [Example 115, 2′-(5-Benzyl-1H-imidazol-2-yl)-5-(methylsulfonyl)-3,4′-bipyridine trifluoroacetate salt]	≤ 50	≤ 300	≤ 50	–
COC[C@@H](NC(=O)c1nc(-c2cc(-c3cncc(N4CCOCC4)c3)ccn2)[nH]c1C)c1ccccc1 [Example 276, N-[(1S)-2-Methoxy-1-phenylethyl]-5-methyl-2-(5-morpholin-4-yl-3,4′-bipyridin-2′-yl) 1H-imidazole-4-carboxamide trifluoroacetate salt]	≤ 50	–	≤ 100	≤ 300
CS(=O)(=O)c1cncc(-c2ccnc(-c3ncc(C(F)(F)F)[nH]3)c2)c1 [Example 109, 5-(Methylsulfonyl)-2′-(5-(trifluoromethyl)-1H-imidazol-2-yl)-3,4′-bipyridine trifluoroacetate salt]	≤ 50	300 to 1000	≤ 50	–
COc1cncc(-c2ccnc(-c3cnc(-c4ccccc4)[nH]3)c2)c1 [Example 74, 5-Methoxy-2′-(2-phenyl-1H-imidazol-5-yl)-3,4′-bipyridine]	≤ 50	> 5000	≤ 50	–
COc1cncc(-c2ccnc(-c3ncc(-c4ccccc4)[nH]3)c2)c1 [Example 19, 5-Methoxy2′-(5-phenyl-1H-imidazol-2-yl)-3,4′-bipyridin trifluoroacetate salt]	≤ 50	1000 to 5000	≤ 50	–

Reference: US11352340B2, “Pyridine and pyridimine compounds as PI3K-gamma inhibitors” (Incyte Corporation, priority 2016, dated 2022)
